Columns and labels:
Format in all cases: physicochemical
[1] = Hydrolysis of marizomib / chemical purity by HPLC after solvent exposure; conditions: starting material 98.2%
Procedure: Purity analysis was performed on an Agilent HP1100 series system equipped with a diode array detector and using ChemStation software vB.04.03 using the method set forth in Table-5.
30 mg of Sample 1 was suspended in the given solvent shown in Table 6 (1 ml) at room temperature. The samples were matured between 50° C. and room temperature heat-cool cycles (8 h per cycle) for 96 h. The solids were filtered, air dried and analyzed by XRPD.

[2] = Polymorphism screening of Sample 1 (solubility observations, maturation, cooling, XRPD); parameters: key to Obs. at r.t. 10 vol. / Obs. at r.t. 20 vol. / Obs. at r.t. 30 vol. / Obs. at r.t. 40 vol. / Obs. at r.t. 50 vol. / Maturation 50° C./r.t. / Cooling at 5° C.: ✓ = Soluble; X = Insoluble,; conditions: for Maturation 50° C./r.t.: heat-cool cycles 24 h; for Cooling at 5° C.: held at 5° C. for 48 h
Procedure: Polymorphism studies on marizomib were carried out in different solvents and conditions to understand the polymorphic behavior of the free form. Marizomib (Sample 1, 30 mg) was dissolved or suspended in the given solvent at room temperature. Solvent was added until the material dissolved or up to a maximum of 50 volumes. The suspensions were matured between 50° C. and room temperature heat-cool cycles (8 h per cycle) for 24 h. The solutions were cooled to and held at 5° C. for 48 h. If no solid was obtained then the solutions were allowed to evaporate slowly at room temperature. All the recovered solids were analyzed by XRPD.

[3] = Variable temperature XRPD
Procedure: Samples run under non-ambient conditions were mounted on a silicon wafer with heat-conducting compound. The sample was then heated to the appropriate temperature at 20° C./min and subsequently held isothermally for 1 minute before data collection was initiated.

[4] = Thermogravimetric analysis (TGA); conditions: heated at 10° C./min under nitrogen
Procedure: TGA data were collected on a TA Instruments Q500 TGA, equipped with a 16-position auto-sampler. The instrument was temperature calibrated using certified Alumel™ and Nickel. Typically 5-10 mg of each sample was loaded onto a pre-tared aluminum DSC pan and heated at 10° C./min from ambient temperature to 350° C. A nitrogen purge at 60 ml/min was maintained over the sample.
TG analyses were performed using a TA Instruments Q5000 IR thermogravimetric analyzer. Temperature calibration was performed using nickel and Alumel™. Each sample was placed in an aluminum pan. The sample was hermetically sealed, the lid pierced, then inserted into the TG furnace. The furnace was heated under nitrogen.

C[C@@]12OC(=O)[C@]1([C@@H](O)[C@@H]1C=CCCC1)NC(=O)[C@@H]2CCCl [Sample 1, marizomib]
Chemical purity (HPLC) of solid isolated from polymorphism screen ([1]; isolated from EtOAc experiment): 96.8%
Chemical purity (HPLC) of solid isolated from polymorphism screen ([1]; isolated from EtOH experiment): 97.4%
Obs. at r.t. 10 vol. ([2]; 2-Propanol): X
Obs. at r.t. 20 vol. ([2]; 2-Propanol): X
Obs. at r.t. 30 vol. ([2]; 2-Propanol): X
Obs. at r.t. 40 vol. ([2]; 2-Propanol): X
Obs. at r.t. 50 vol. ([2]; 2-Propanol): X
Maturation 50° C./r.t. ([2]; 2-Propanol): X
Morphic form obtained from polymorphism screen (XRPD) ([2]; 20 solvents, maturation, cooling, evaporation): Form I was the only form obtained
Obs. at r.t. 10 vol. ([2]; Acetone): X
Obs. at r.t. 20 vol. ([2]; Acetone): X
Obs. at r.t. 30 vol. ([2]; Acetone): X
Obs. at r.t. 40 vol. ([2]; Acetone): X
Obs. at r.t. 50 vol. ([2]; Acetone): X
Maturation 50° C./r.t. ([2]; Acetone): ✓
Cooling at 5° C. ([2]; Acetone): ✓
Obs. at r.t. 10 vol. ([2]; Acetonitrile): X
Obs. at r.t. 20 vol. ([2]; Acetonitrile): X
Obs. at r.t. 30 vol. ([2]; Acetonitrile): X
Obs. at r.t. 40 vol. ([2]; Acetonitrile): X
Obs. at r.t. 50 vol. ([2]; Acetonitrile): X
Maturation 50° C./r.t. ([2]; Acetonitrile): X
Obs. at r.t. 10 vol. ([2]; Anisole): X
Obs. at r.t. 20 vol. ([2]; Anisole): X
Obs. at r.t. 30 vol. ([2]; Anisole): X
Obs. at r.t. 40 vol. ([2]; Anisole): X
Obs. at r.t. 50 vol. ([2]; Anisole): X
Maturation 50° C./r.t. ([2]; Anisole): X
Obs. at r.t. 10 vol. ([2]; Chloroform): X
Obs. at r.t. 20 vol. ([2]; Chloroform): ✓
Cooling at 5° C. ([2]; Chloroform): ✓
Obs. at r.t. 10 vol. ([2]; Cumene): X
Obs. at r.t. 20 vol. ([2]; Cumene): X
Obs. at r.t. 30 vol. ([2]; Cumene): X
Obs. at r.t. 40 vol. ([2]; Cumene): X
Obs. at r.t. 50 vol. ([2]; Cumene): X
Maturation 50° C./r.t. ([2]; Cumene): X
Obs. at r.t. 10 vol. ([2]; DMA): X
Obs. at r.t. 20 vol. ([2]; DMA): ✓
Cooling at 5° C. ([2]; DMA): ✓
Obs. at r.t. 10 vol. ([2]; DMF): X
Obs. at r.t. 20 vol. ([2]; DMF): ✓
Cooling at 5° C. ([2]; DMF): ✓
Obs. at r.t. 10 vol. ([2]; Dichloromethane): X
Obs. at r.t. 20 vol. ([2]; Dichloromethane): X
Obs. at r.t. 30 vol. ([2]; Dichloromethane): X
Obs. at r.t. 40 vol. ([2]; Dichloromethane): X
Obs. at r.t. 50 vol. ([2]; Dichloromethane): X
Maturation 50° C./r.t. ([2]; Dichloromethane): X
Obs. at r.t. 10 vol. ([2]; Dimethyl sulfoxide): X
Obs. at r.t. 20 vol. ([2]; Dimethyl sulfoxide): X
Obs. at r.t. 30 vol. ([2]; Dimethyl sulfoxide): X
Obs. at r.t. 40 vol. ([2]; Dimethyl sulfoxide): X
Obs. at r.t. 50 vol. ([2]; Dimethyl sulfoxide): X
Maturation 50° C./r.t. ([2]; Dimethyl sulfoxide): ✓
Cooling at 5° C. ([2]; Dimethyl sulfoxide): ✓
Obs. at r.t. 10 vol. ([2]; Ethanol): X
Obs. at r.t. 20 vol. ([2]; Ethanol): X
Obs. at r.t. 30 vol. ([2]; Ethanol): X
Obs. at r.t. 40 vol. ([2]; Ethanol): X
Obs. at r.t. 50 vol. ([2]; Ethanol): X
Maturation 50° C./r.t. ([2]; Ethanol): X
Obs. at r.t. 10 vol. ([2]; Ethyl acetate): X
Obs. at r.t. 20 vol. ([2]; Ethyl acetate): X
Obs. at r.t. 30 vol. ([2]; Ethyl acetate): X
Obs. at r.t. 40 vol. ([2]; Ethyl acetate): X
Obs. at r.t. 50 vol. ([2]; Ethyl acetate): X
Maturation 50° C./r.t. ([2]; Ethyl acetate): ✓
Cooling at 5° C. ([2]; Ethyl acetate): ✓
Obs. at r.t. 10 vol. ([2]; Isopropyl acetate): X
Obs. at r.t. 20 vol. ([2]; Isopropyl acetate): X
Obs. at r.t. 30 vol. ([2]; Isopropyl acetate): X
Obs. at r.t. 40 vol. ([2]; Isopropyl acetate): X
Obs. at r.t. 50 vol. ([2]; Isopropyl acetate): X
Maturation 50° C./r.t. ([2]; Isopropyl acetate): X
Obs. at r.t. 10 vol. ([2]; MEK): X
Obs. at r.t. 20 vol. ([2]; MEK): X
Obs. at r.t. 30 vol. ([2]; MEK): X
Obs. at r.t. 40 vol. ([2]; MEK): X
Obs. at r.t. 50 vol. ([2]; MEK): X
Maturation 50° C./r.t. ([2]; MEK): ✓
Cooling at 5° C. ([2]; MEK): ✓
Obs. at r.t. 10 vol. ([2]; MIBK): X
Obs. at r.t. 20 vol. ([2]; MIBK): X
Obs. at r.t. 30 vol. ([2]; MIBK): X
Obs. at r.t. 40 vol. ([2]; MIBK): X
Obs. at r.t. 50 vol. ([2]; MIBK): X
Maturation 50° C./r.t. ([2]; MIBK): X
Obs. at r.t. 10 vol. ([2]; Nitromethane): X
Obs. at r.t. 20 vol. ([2]; Nitromethane): X
Obs. at r.t. 30 vol. ([2]; Nitromethane): X
Obs. at r.t. 40 vol. ([2]; Nitromethane): X
Obs. at r.t. 50 vol. ([2]; Nitromethane): X
Maturation 50° C./r.t. ([2]; Nitromethane): X
Obs. at r.t. 10 vol. ([2]; Tetrahydrofuran): X
Obs. at r.t. 20 vol. ([2]; Tetrahydrofuran): ✓
Cooling at 5° C. ([2]; Tetrahydrofuran): ✓
Obs. at r.t. 10 vol. ([2]; Toluene): X
Obs. at r.t. 20 vol. ([2]; Toluene): X
Obs. at r.t. 30 vol. ([2]; Toluene): X
Obs. at r.t. 40 vol. ([2]; Toluene): X
Obs. at r.t. 50 vol. ([2]; Toluene): X
Maturation 50° C./r.t. ([2]; Toluene): X
Obs. at r.t. 10 vol. ([2]; n-Heptane): X
Obs. at r.t. 20 vol. ([2]; n-Heptane): X
Obs. at r.t. 30 vol. ([2]; n-Heptane): X
Obs. at r.t. 40 vol. ([2]; n-Heptane): X
Obs. at r.t. 50 vol. ([2]; n-Heptane): X
Maturation 50° C./r.t. ([2]; n-Heptane): X
Obs. at r.t. 10 vol. ([2]; tert-Butylmethyl ether): X
Obs. at r.t. 20 vol. ([2]; tert-Butylmethyl ether): X
Obs. at r.t. 30 vol. ([2]; tert-Butylmethyl ether): X
Obs. at r.t. 40 vol. ([2]; tert-Butylmethyl ether): X
Obs. at r.t. 50 vol. ([2]; tert-Butylmethyl ether): X
Maturation 50° C./r.t. ([2]; tert-Butylmethyl ether): X
Morphic form on heating (variable temperature XRPD) ([3]; 25° C. to 160° C.): remained as Form I
Discoloration (white to yellow) temperature; melting and/or degradation after about five minutes hold ([3]; during variable temperature XRPD): about 160 °C

C[C@@]12OC(=O)[C@]1([C@@H](O)[C@@H]1C=CCCC1)NC(=O)[C@@H]2CCCl [Sample 3, marizomib]
TGA: no weight loss observed until (weight loss can be due to sample degradation) [4]: about 175 °C

Reference: patent US10703760B2, “Morphic forms of marizomib and uses thereof” (Celgene International II Sàrl, priority 2016, dated 2020)
